Experimental data as given in paper PMC8523698, “Preclinical characterization of an intravenous coronavirus 3CL protease inhibitor for the potential treatment of COVID19” (Nature Communications, 2021).
“And” between values parts separate entries of the source, which are not always exact repeats. Equal entries are not always repeated. Where two headings read alike, the source gives them in different places.

Legend:
CYP1A2 = biological target: T1, CYP1A2 (Homo sapiens, UniProt P05177); assay: Reversible CYP inhibition in human liver microsomes; details: human, microsomes, pH 7.4, Percent of Control Activity; for activity at 200 µM: CYP 1A2, 200 µM
T1 sequence (P05177 1-516): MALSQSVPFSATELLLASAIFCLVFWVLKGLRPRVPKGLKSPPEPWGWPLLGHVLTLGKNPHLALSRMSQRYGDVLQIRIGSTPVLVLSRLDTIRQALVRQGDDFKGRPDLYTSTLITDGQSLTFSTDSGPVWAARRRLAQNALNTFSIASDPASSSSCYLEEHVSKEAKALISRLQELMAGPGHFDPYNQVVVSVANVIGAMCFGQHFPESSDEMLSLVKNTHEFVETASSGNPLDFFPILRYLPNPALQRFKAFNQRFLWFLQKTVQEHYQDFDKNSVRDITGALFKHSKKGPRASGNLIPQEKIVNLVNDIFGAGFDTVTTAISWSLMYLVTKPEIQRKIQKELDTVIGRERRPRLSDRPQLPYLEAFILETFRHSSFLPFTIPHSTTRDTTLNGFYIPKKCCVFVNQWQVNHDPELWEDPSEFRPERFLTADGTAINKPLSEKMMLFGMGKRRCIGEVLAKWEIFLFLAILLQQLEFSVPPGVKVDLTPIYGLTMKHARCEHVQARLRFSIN

CYP2C8 = biological target: T2, CYP2C8 (Homo sapiens, UniProt P10632); assay: as above; details: for activity at 0.1 µM / activity at 0.214 µM / activity at 0.979 µM / activity at 2.09 µM / activity at 4.48 µM / activity at 20.5 µM / activity at 43.8 µM / activity at 93.5 µM / activity at 200 µM: pH 7.4, Percent of Control Activity
T2 sequence (P10632 1-490): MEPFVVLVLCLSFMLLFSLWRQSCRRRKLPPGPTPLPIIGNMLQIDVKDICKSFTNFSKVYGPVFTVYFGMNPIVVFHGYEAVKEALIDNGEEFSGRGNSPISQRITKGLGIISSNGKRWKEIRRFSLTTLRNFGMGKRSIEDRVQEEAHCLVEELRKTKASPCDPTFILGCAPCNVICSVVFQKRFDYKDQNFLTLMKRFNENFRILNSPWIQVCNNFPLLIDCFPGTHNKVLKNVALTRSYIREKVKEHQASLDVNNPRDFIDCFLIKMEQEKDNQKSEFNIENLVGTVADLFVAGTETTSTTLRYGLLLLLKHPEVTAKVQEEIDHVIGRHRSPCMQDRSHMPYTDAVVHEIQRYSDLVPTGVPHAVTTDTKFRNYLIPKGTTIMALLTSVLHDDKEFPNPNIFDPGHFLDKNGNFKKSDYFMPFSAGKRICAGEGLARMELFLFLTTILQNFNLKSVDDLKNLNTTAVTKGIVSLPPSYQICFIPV

OAT1 = biological target: T3, OAT1 (Homo sapiens, UniProt Q4U2R8); assay: Transporter inhibition using transfected HEK293 cells
T3 sequence (Q4U2R8 1-563): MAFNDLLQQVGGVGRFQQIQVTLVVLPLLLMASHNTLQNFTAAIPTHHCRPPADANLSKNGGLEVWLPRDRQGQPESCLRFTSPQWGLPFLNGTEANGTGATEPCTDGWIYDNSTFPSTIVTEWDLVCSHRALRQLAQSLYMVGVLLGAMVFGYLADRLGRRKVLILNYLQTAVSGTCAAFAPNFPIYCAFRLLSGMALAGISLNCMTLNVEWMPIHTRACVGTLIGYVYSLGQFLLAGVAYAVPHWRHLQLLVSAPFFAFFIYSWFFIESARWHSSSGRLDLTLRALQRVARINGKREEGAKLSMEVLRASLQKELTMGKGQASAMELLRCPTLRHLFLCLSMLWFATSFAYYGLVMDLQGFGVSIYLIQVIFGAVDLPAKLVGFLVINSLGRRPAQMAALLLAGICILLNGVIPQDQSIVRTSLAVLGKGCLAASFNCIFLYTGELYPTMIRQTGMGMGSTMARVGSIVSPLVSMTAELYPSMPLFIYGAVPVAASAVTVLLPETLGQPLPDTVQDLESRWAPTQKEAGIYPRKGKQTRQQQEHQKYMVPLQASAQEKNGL

`COc1cccc2[nH]c(C(=O)N[C@@H](CC(C)C)C(=O)N[C@@H](C[C@@H]3CCNC3=O)C(=O)CO)cc12` [PF-00835231] was tested. Which activity at 93.5 µM (CYP1A2; CYP 1A2, 93.5 µM, Zero-Minute Preincubation) did it give?
The activity at 93.5 µM was 84.6%.

What about the activity at 200 µM (CYP1A2; 30-Minute Preincubation) of the same compound?
Its activity at 200 µM is 93.6%.

And the activity at 200 µM (CYP1A2; Zero-Minute Preincubation)?
The activity at 200 µM was 81.3%.

And the “Percent of Control Activity” value (CYP2C8; CYP 2C8, 0.1 µM, 30-Minute Preincubation, 0.1 µM)?
The value was 98.0% and 103.9%.

And the “Percent of Control Activity” value (CYP2C8; CYP 2C8, 0.1 µM, Zero-Minute Preincubation, 0.1 µM)?
Its value is 104.8% and 112.8%.

And the “Percent of Control Activity” value (CYP2C8; CYP 2C8, 0.214 µM, 30-Minute Preincubation, 0.214 µM)?
The value was 93.1% and 90.6%.

And the “Percent of Control Activity” value (CYP2C8; CYP 2C8, 0.214 µM, Zero-Minute Preincubation, 0.214 µM)?
The value was 107.5% and 109.2%.

What about the “Percent of Control Activity” value (CYP2C8; CYP 2C8, 0.979 µM, 30-Minute Preincubation, 0.979 µM) of the same compound?
The value was 105.7% and 92.9%.

What about the “Percent of Control Activity” value (CYP2C8; CYP 2C8, 2.09 µM, 30-Minute Preincubation, 2.09 µM) of the same compound?
Its value is 93.9% and 94.5%.

What about the “Percent of Control Activity” value (CYP2C8; CYP 2C8, 2.09 µM, Zero-Minute Preincubation, 2.09 µM) of the same compound?
Its value is 100.1% and 105.9%.

What about the “Percent of Control Activity” value (CYP2C8; CYP 2C8, 4.48 µM, 30-Minute Preincubation, 4.48 µM) of the same compound?
The value was 91.6% and 90.7%.

What about the “Percent of Control Activity” value (CYP2C8; CYP 2C8, 4.48 µM, Zero-Minute Preincubation, 4.48 µM) of the same compound?
The value was 107.2% and 107.1%.

What about the “Percent of Control Activity” value (CYP2C8; CYP 2C8, 20.5 µM, 30-Minute Preincubation, 20.5 µM) of the same compound?
The value was 94.2% and 94.7%.

And the “Percent of Control Activity” value (CYP2C8; CYP 2C8, 20.5 µM, Zero-Minute Preincubation, 20.5 µM)?
Its value is 95.8% and 108.3%.

What about the “Percent of Control Activity” value (CYP2C8; CYP 2C8, 43.8 µM, 30-Minute Preincubation, 43.8 µM) of the same compound?
The value was 90.3%.

What about the “Percent of Control Activity” value (CYP2C8; CYP 2C8, 43.8 µM, Zero-Minute Preincubation, 43.8 µM) of the same compound?
The value was 96.9% and 95.4%.

What about the “Percent of Control Activity” value (CYP2C8; CYP 2C8, 93.5 µM, 30-Minute Preincubation, 93.5 µM) of the same compound?
The value was 68.7% and 77.7%.

And the “Percent of Control Activity” value (CYP2C8; CYP 2C8, 93.5 µM, Zero-Minute Preincubation, 93.5 µM)?
The value was 87.1% and 95.1%.

What about the “Percent of Control Activity” value (CYP2C8; CYP 2C8, 200 µM, 30-Minute Preincubation, 200 µM) of the same compound?
Its value is 65.4% and 64.5%.

And the “Percent of Control Activity” value (CYP2C8; CYP 2C8, 200 µM, Zero-Minute Preincubation, 200 µM)?
Its value is 78.5% and 82.2%.

What about the IC50 (CYP2C8; human, microsomes, pH 7.4) of the same compound?
The IC50 was over 200 µM.

And the activity at 0.1 µM (CYP2C8; human, microsomes, CYP 2C8, 0.1 µM, 30-Minute Preincubation)?
The activity at 0.1 µM was 97.4%.

And the activity at 0.1 µM (CYP2C8; human, microsomes, CYP 2C8, 0.1 µM, Zero-Minute Preincubation)?
The activity at 0.1 µM was 99.7%.

And the activity at 0.214 µM (CYP2C8; human, microsomes, CYP 2C8, 0.214 µM, 30-Minute Preincubation)?
Its activity at 0.214 µM is 91%.

And the activity at 0.214 µM (CYP2C8; human, microsomes, CYP 2C8, 0.214 µM, Zero-Minute Preincubation)?
Its activity at 0.214 µM is 103%.

What about the activity at 0.979 µM (CYP2C8; human, microsomes, CYP 2C8, 0.979 µM, 30-Minute Preincubation) of the same compound?
Its activity at 0.979 µM is 98.3%.

And the activity at 0.979 µM (CYP2C8; human, microsomes, CYP 2C8, 0.979 µM, Zero-Minute Preincubation)?
The activity at 0.979 µM was 108%.

And the activity at 2.09 µM (CYP2C8; human, microsomes, CYP 2C8, 2.09 µM, 30-Minute Preincubation)?
The activity at 2.09 µM was 92.8%.

And the activity at 2.09 µM (CYP2C8; human, microsomes, CYP 2C8, 2.09 µM, Zero-Minute Preincubation)?
Its activity at 2.09 µM is 110%.

And the activity at 4.48 µM (CYP2C8; human, microsomes, CYP 2C8, 4.48 µM, 30-Minute Preincubation)?
The activity at 4.48 µM was 85.8%.

And the activity at 4.48 µM (CYP2C8; human, microsomes, CYP 2C8, 4.48 µM, Zero-Minute Preincubation)?
The activity at 4.48 µM was 104%.

And the activity at 20.5 µM (CYP2C8; human, microsomes, CYP 2C8, 20.5 µM, 30-Minute Preincubation)?
Its activity at 20.5 µM is 86%.

And the activity at 20.5 µM (CYP2C8; human, microsomes, CYP 2C8, 20.5 µM, Zero-Minute Preincubation)?
The activity at 20.5 µM was 93.6%.

What about the activity at 43.8 µM (CYP2C8; human, microsomes, CYP 2C8, 43.8 µM, 30-Minute Preincubation) of the same compound?
Its activity at 43.8 µM is 82.6%.

And the activity at 43.8 µM (CYP2C8; human, microsomes, CYP 2C8, 43.8 µM, Zero-Minute Preincubation)?
The activity at 43.8 µM was 91.9%.

What about the activity at 93.5 µM (CYP2C8; human, microsomes, CYP 2C8, 93.5 µM, 30-Minute Preincubation) of the same compound?
The activity at 93.5 µM was 76.7%.

And the activity at 93.5 µM (CYP2C8; human, microsomes, CYP 2C8, 93.5 µM, Zero-Minute Preincubation)?
Its activity at 93.5 µM is 91.2%.

What about the activity at 200 µM (CYP2C8; human, microsomes, CYP 2C8, 200 µM, 30-Minute Preincubation) of the same compound?
The activity at 200 µM was 62.8%.

What about the activity at 200 µM (CYP2C8; human, microsomes, CYP 2C8, 200 µM, Zero-Minute Preincubation) of the same compound?
The activity at 200 µM was 79.6%.

What about the IC50 (OAT1) of the same compound?
Its IC50 is over 300 µM.

And the IC50 (OAT1; human, HEK293 cells transfected with OAT1, pH 7.4, probe [3H] para-aminohippuric acid (0.5 µM))?
Its IC50 is over 20 µM.
